Patent publication US10294248B2, “Beta-lactamase inhibitors” (VenatoRx Pharmaceuticals, Inc., priority 2013, dated 2019)

Experiments:
[1] = system: K. pneumoniae A-1797 expressing KPC-2 and VIM-4; assay: Broth microdilution MIC, K. pneumoniae A-1797 KPC-2/VIM-4; format: cell-based; conditions: fixed 4 μg/mL meropenem; CAMHB, 16-20 hours at 37° C.
Method in brief: (§1)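 Following CLSI broth microdilution, β-lactamase-producing strains grown 3–5 h were exposed in CAMHB to 2-fold dilutions of test compound (32 to 0.25 μg/mL final). A static 4 μg/mL β-lactam overlay was added. After 16–20 h at 37° C, MIC was scored by eye.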

[2] = system: S. aureus MSSA-7 producing penicillinase PC-1; assay: Broth microdilution MIC, S. aureus MSSA-7 PC-1; format: cell-based; conditions: fixed 4 μg/mL piperacillin; CAMHB, 16-20 hours at 37° C.
Method in brief: as §1

[3] = system: E. coli ESBL4 expressing CTX-M-15; assay: Broth microdilution MIC, E. coli ESBL4 CTX-M-15; format: cell-based; conditions: fixed 4 μg/mL ceftazidime; CAMHB, 16-20 hours at 37° C.
Method in brief: as §1

[4] = target: T1, p99 AmpC β-lactamase (Class C) (Enterobacter cloacae, UniProt P05364); assay: β-Lactamase inhibition, p99 AmpC; format: biochemical
T1 construct: made in house; host or cells: E. coli BL21(DE3)
T1 sequence (P05364 21-381): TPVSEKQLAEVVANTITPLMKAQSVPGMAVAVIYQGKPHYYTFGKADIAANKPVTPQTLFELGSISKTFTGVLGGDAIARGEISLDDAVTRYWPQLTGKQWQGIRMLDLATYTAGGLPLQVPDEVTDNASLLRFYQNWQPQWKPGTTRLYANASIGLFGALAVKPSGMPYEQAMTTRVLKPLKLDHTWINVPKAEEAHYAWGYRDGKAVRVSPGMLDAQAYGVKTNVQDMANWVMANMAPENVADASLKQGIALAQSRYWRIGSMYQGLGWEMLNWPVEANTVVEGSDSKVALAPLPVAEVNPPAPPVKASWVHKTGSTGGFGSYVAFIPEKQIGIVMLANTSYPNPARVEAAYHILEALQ

[5] = target: T2, OXA-1 β-lactamase (Class D oxacillinase) (Escherichia coli, UniProt P13661); assay: β-Lactamase inhibition, OXA-1; format: biochemical; conditions: nitrocefin 100 μM, 486 nm; 15 min preincubation at 37° C., PBS pH 7.4
T2 construct: made in house; host or cells: E. coli BL21(DE3)
T2 sequence (P13661 26-276): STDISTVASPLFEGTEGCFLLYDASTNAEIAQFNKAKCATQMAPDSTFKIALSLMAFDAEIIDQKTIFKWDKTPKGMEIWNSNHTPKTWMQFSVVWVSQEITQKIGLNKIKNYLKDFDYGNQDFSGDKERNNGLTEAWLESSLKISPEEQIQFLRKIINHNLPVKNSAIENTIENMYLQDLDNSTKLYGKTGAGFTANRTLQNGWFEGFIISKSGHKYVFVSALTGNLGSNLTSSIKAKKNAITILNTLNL
Method in brief: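 Compounds are mixed with purified, untagged recombinant β-lactamase and held 15 min at 37 °C. Substrate is then added: nitrocefin (100 μM final) for OXA-1, imipenem for KPC-2, cefotaxime for SHV-5. Absorbance is followed immediately, and percent inhibition per concentration gives the IC50.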

[6] = system: E. cloacae 144200 expressing Class C P99 AmpC; assay: Broth microdilution MIC, E. cloacae 144200 p99 AmpC; format: cell-based; conditions: fixed 4 μg/mL ceftazidime; CAMHB, 16-20 hours at 37° C.
Method in brief: as §1

[7] = target: T3, SHV-5 β-lactamase (Class A ESBL) (Klebsiella pneumoniae, UniProt P0A3M1); assay: β-Lactamase inhibition, SHV-5; format: biochemical
T3 construct: made in house; host or cells: E. coli BL21(DE3)
T3 sequence (P0A3M1 22-286): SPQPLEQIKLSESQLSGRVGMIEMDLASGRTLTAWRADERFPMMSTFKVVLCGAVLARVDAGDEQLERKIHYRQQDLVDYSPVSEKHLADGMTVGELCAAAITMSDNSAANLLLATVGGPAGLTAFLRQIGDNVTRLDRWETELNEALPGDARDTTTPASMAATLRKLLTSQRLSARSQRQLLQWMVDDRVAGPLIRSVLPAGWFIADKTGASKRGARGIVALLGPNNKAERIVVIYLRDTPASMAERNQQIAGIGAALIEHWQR
Method in brief: (§2)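 IC50 is the inhibitor level cutting initial substrate hydrolysis rate by 50% relative to no-inhibitor controls, after 15 min enzyme–inhibitor preincubation at 37 °C. KPC-2 read with imipenem at 300 nm, SHV-5 with cefotaxime at 260 nm; enzymes were untagged, E. coli-expressed, chromatographically purified.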

[8] = system: K. pneumoniae 156319 expressing KPC-3; assay: Broth microdilution MIC, K. pneumoniae 156319 KPC-3; format: cell-based; conditions: fixed 4 μg/mL meropenem; CAMHB, 16-20 hours at 37° C.
Method in brief: as §1

[9] = target: T4, VIM-2 metallo-β-lactamase (Class B) (Pseudomonas aeruginosa, UniProt Q9K2N0); assay: β-Lactamase inhibition, VIM-2; format: biochemical; conditions: nitrocefin 100 μM, 486 nm; 15 min preincubation at 37° C., PBS pH 7.4
T4 construct: made in house; host or cells: E. coli BL21(DE3)
Method in brief: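 Nitrocefin hydrolysis (100 μM final, A486 read for 10 min) by purified VIM-2 after a 15-min, 37° C enzyme–inhibitor preincubation. IC50 is the concentration halving initial hydrolysis rate, derived from percent inhibition against no-inhibitor wells.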

[10] = system: P. aeruginosa Ps296 expressing VIM-2; assay: Broth microdilution MIC, P. aeruginosa Ps296 VIM-2; format: cell-based; conditions: fixed 4 μg/mL meropenem; CAMHB, 16-20 hours at 37° C.
Method in brief: as §1

[11] = target: T5, KPC-2 β-lactamase (Class A carbapenemase) (Klebsiella pneumoniae, UniProt Q9F663); assay: β-Lactamase inhibition, KPC-2; format: biochemical; conditions: imipenem substrate, 300 nm; 15 min preincubation at 37° C., PBS pH 7.4
T5 construct: made in house; host or cells: E. coli BL21(DE3)
T5 sequence (Q9F663 25-293, looked up): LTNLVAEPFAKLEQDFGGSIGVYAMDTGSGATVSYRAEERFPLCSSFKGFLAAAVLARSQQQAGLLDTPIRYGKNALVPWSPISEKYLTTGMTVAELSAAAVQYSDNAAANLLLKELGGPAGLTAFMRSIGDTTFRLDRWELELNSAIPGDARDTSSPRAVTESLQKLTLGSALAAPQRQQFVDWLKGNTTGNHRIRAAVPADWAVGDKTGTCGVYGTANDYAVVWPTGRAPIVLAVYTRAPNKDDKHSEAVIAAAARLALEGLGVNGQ
Method in brief: as §2

SMILES	MIC of example compound in presence of fixed β-lactam: Fixed Mero, K. P. A-1797 KPC-2 VIM-4 [1]	MIC of example compound in presence of fixed β-lactam: Fixed Pip, S. aureus MSSA-7 PC-1 [2]	MIC of example compound in presence of fixed β-lactam: Fixed CAZ, E. coli ESBL4 CTX-M-15 [3]	IC50 [4]	IC50 [5]	MIC of example compound in presence of fixed β-lactam: Fixed CAZ, E. cl. 144200 p99 AmpC [6]	IC50 [7]	MIC of example compound in presence of fixed β-lactam: Fixed Mero, K. P. 156319 KPC-3 [8]	IC50 [9]	MIC of example compound in presence of fixed β-lactam: Fixed Mero, P. aerug. Ps296 VIM-2 [10]	IC50 [11]
NC1(C(=O)N[C@H]2Cc3cccc(C(=O)O)c3OB2O)CCNCC1 [Example 49, 3-[(4-Amino-piperidine-4-carbonyl)-amino]-2-hydroxy-3,4-dihydro-2H-benzo[e][1,2]oxaborinine-8-carboxylic acid]	A (an MIC of the fixed β-lactam antibiotic in the presence of >32 μg/mL of a β-lactamase inhibitor)	C (the MIC in the presence of <4 μg/mL of a β-lactamase inhibitor)	C (the MIC in the presence of <4 μg/mL of a β-lactamase inhibitor)	< 100 nM	< 100 nM	C (the MIC in the presence of <4 μg/mL of a β-lactamase inhibitor)	< 100 nM	C (the MIC in the presence of <4 μg/mL of a β-lactamase inhibitor)	1 to 10 µM	B (the MIC in the presence of between 8 and 32 μg/mL of a β-lactamase inhibitor)	< 100 nM
NCC1CCCN(CC(=O)N[C@H]2Cc3cccc(C(=O)O)c3OB2O)C1 (stereo partly drawn) [Example 19, 3-[2-(3-Aminomethyl-piperidin-1-yl)-acetylamino]-2-hydroxy-3,4-dihydro-2H-benzo[e][1,2]oxaborinine-8-carboxylic acid]	A (an MIC of the fixed β-lactam antibiotic in the presence of >32 μg/mL of a β-lactamase inhibitor)	B (the MIC in the presence of between 8 and 32 μg/mL of a β-lactamase inhibitor)	C (the MIC in the presence of <4 μg/mL of a β-lactamase inhibitor)	< 100 nM	< 100 nM	C (the MIC in the presence of <4 μg/mL of a β-lactamase inhibitor)	< 100 nM	B (the MIC in the presence of between 8 and 32 μg/mL of a β-lactamase inhibitor)	10 to 100 µM	A (an MIC of the fixed β-lactam antibiotic in the presence of >32 μg/mL of a β-lactamase inhibitor)	100 to 1000 nM
N=C(N)NCC1CCCN(CC(=O)N[C@H]2Cc3cccc(C(=O)O)c3OB2O)C1 (stereo partly drawn) [Example 37, 3-[2-(3-Guanidinomethyl-piperidin-1-yl)-acetylamino]-2-hydroxy-3,4-dihydro-2H-benzo[e][1,2]oxaborinine-8-carboxylic acid]	B (the MIC in the presence of between 8 and 32 μg/mL of a β-lactamase inhibitor)	C (the MIC in the presence of <4 μg/mL of a β-lactamase inhibitor)	C (the MIC in the presence of <4 μg/mL of a β-lactamase inhibitor)	< 100 nM	100 to 1000 nM	C (the MIC in the presence of <4 μg/mL of a β-lactamase inhibitor)	100 to 1000 nM	C (the MIC in the presence of <4 μg/mL of a β-lactamase inhibitor)	0.1 to 1 µM	A (an MIC of the fixed β-lactam antibiotic in the presence of >32 μg/mL of a β-lactamase inhibitor)	100 to 1000 nM
